Test results as given in article PMC6033213, “Structurally simple synthetic 1, 4-disubstituted piperidines with high selectivity for resistant Plasmodium falciparum” (BMC Pharmacology & Toxicology, 2018).
Converted amounts (≈) assume the structure as drawn. Where two headings read alike, the source gives them in different places.

How the values were obtained:
[1] = tested on: P. falciparum Dd2; assay: Secondary screen: parasite growth inhibition by parasite lactate dehydrogenase (pLDH) assay, Dd2; type: cell-based, Plasmodium falciparum; set-up: key to Antiplasmodial activity class on Dd2: active, IC50 < 5 μg/mL; moderately active: 5 μg/mL ≤ IC50 ≤ 10 μg/mL; weakly active: IC50 ≥ 10 μg/mL
Source text: (§1) Two Plasmodium falciparum parasite strains were obtained from MR4 (Manassas, Virginia, USA) and stored in liquid nitrogen. The 3D7 (MRA-102) strain is chloroquine- sensitive while Dd2 is a multidrug resistant clone of the W2 strain with resistance to chloroquine, quinine, mefloquine, sulfadoxine and pyrimethamine. Parasite stocks were thawed, grown and maintained in continuous culture by the candle jar technique with some modifications. The culture consisted of 4% hematocrit suspension of human O+ erythrocytes in RPMI-1640 medium (10.43 g/L supplemented with 0.01 mg/mL gentamycin, 25 mM Hepes buffer, 25 mM NaHCO3) and 5 g Albumax II. All culture reagents were obtained from Sigma-Aldrich Inc. (Germany) except for Albumax II (Gibco; Invitrogen, USA). Cultures were incubated at 37 °C in 5% CO2.
(§2) After incubation the plate was frozen at − 20 °C for the parasite lactate dehydrogenase (pLDH) assay.
(§3) The reagent preparation and assay were done as described. The plates were subjected to 3 freeze-thaw cycles to haemolyze the red blood cells. One hundred microlitre (100 μL) of Malstat reagent was added to each required well of a fresh microtitre plate followed by 20 μL of culture. Then 25 μL of nitroblue tetrazolium/phenazine ethosulfate (NBT/PES) solution was added initiating the reaction. The plates were then incubated for an hour in the dark and optical density (OD) measured at 650 nm (Emax-Molecular Devices Corporation, California, USA).
(§4) For the parasite lactate dehydrogenase assay, the background OD of blank wells containing non parasitized red blood cells was subtracted from values of all test wells. OD values from control wells void of test compound represented the maximum pLDH activity. The OD values obtained were used to determine the IC50, and IC90 values using the software IC Method IC Estimator V1.2 [18], an online calculator of IC values. Each assay was done twice in duplicates and the 4 IC50 or CC50 values obtained were pooled together and expressed as mean IC ± S.D.

[2] = tested on: LLC-MK2 monkey kidney epithelial cells; assay: Cytotoxicity test, MTT/formazan assay; type: cell-based; conditions: for SI on 3D7: CC50 on LLC-MK2 cells/IC50 on P. falciparum 3D7; for SI on Dd2: CC50 on LLC-MK2 cells/IC50 on P. falciparum Dd2; for Mean SI: mean of the Selectivity Indices of the 3D7 and Dd2 parasite strains
Experimental: (§5) This was done on monkey kidney epithelial cells, LLC-MK2, (ATCC, USA) as described except for use of same culture medium and conditions for P falciparum above. The cells, 10,000 in 100 μL medium per well, were cultured for 24 h to become confluent and attached to the bottom of the well and the medium replaced with 100 μL of fresh medium. […] A negative control without test substance was included. The plates were incubated for 72 h at 37 °C in 5% CO2 and cell viability were determined using microscopy to observe dead cells which appeared dark and deformed. This was followed by the MTT/formazan assay as described above with slight modification. The CC50 values (50% cytotoxic concentration) for each compound was obtained using Microsoft excel 2007. The selectivity index (SI) was calculated using the formula:3 SI=CC50onLLC‐MK2cells/IC50onP.falciparum
as §4

[3] = Cytotoxicity test, MTT/formazan assay; type: cell-based, monkey; conditions: monkey, LLC-MK2 monkey kidney epithelial cells; LLC-MK2 cells, 72 h, MTT/formazan
Experimental: as §5, §4

[4] = tested on: P. falciparum 3D7; assay: Secondary screen: parasite growth inhibition by parasite lactate dehydrogenase (pLDH) assay, 3D7; type: cell-based, Plasmodium falciparum; set-up: key to Antiplasmodial activity class on 3D7: active, IC50 < 5 μg/mL; moderately active: 5 μg/mL ≤ IC50 ≤ 10 μg/mL; weakly active: IC50 ≥ 10 μg/mL
Source text: as §1, §2, §3, §4

[5] = tested on: P. falciparum Dd2; assay: Primary screen: in vitro parasite growth inhibition at a single concentration, fluorescence microscopy with acridine orange; type: cell-based, Plasmodium falciparum; conditions: 40 μg/mL, 48 h, Dd2 chloroquine-resistant strain; for inhibition at 40 µg/mL: Plasmodium falciparum
Source text: as §1
A primary screen for antiplasmodial activity at a single concentration was performed against Dd2 as described with some modifications, to identify active compounds. Stock solutions of compound (1 mg/mL) was initially dissolved in dimethylsulfoxide (DMSO), then gentamycin-free incomplete medium (without Albumax II) added giving 2% final DMSO; the solutions were sterilized and stored. The positive control solutions (artemether and quinine at 5 μg/mL) were prepared similarly. The compounds were tested at a final concentration of 40 μg/mL in duplicate in a 96 well microtitre plate (100 μL per well), followed by 100 μL of 1% parasitized blood. Positive and negative controls (no drug) were included. The plate was incubated under the same culture conditions as above for 48 h and antiplasmodial activity determined by fluorescence microscopy (Leitz Wetzlar, Germany) with acridine orange stain at × 40 magnification under oil immersion. The number of infected erythrocytes (Ei) was counted in 20 monolayer fields (approximately 1500 cells per field) and the percentage parasitaemia was calculated using the formula:1 %parasitaemia=∑Ei/30,000×100
The percentage inhibition per concentration was then obtained using the formula below:2 percentage%inhibition=%parasitaemia of control well‐%parasitaemia of test well/%parasitaemia of control well×100

[6] = Plasmodium falciparum, Dd2 chloroquine-resistant strain, pLDH assay, mean ± S.D., read-out: IC50
[7] = Plasmodium falciparum, Dd2 chloroquine-resistant strain, pLDH assay, mean ± S.D., read-out: IC90
[8] = Plasmodium falciparum, 3D7 chloroquine-sensitive strain, pLDH assay, mean ± S.D., read-out: IC50
[9] = Plasmodium falciparum, 3D7 chloroquine-sensitive strain, pLDH assay, mean ± S.D., read-out: IC90
[10] = Plasmodium falciparum, Dd2 strain, class by IC50, read-out: Antiplasmodial activity class on Dd2
[11] = Plasmodium falciparum, 3D7 strain, class by IC50, read-out: Antiplasmodial activity class on 3D7
[12] = Dd2 chloroquine-resistant strain, pLDH assay, mean ± S.D.
[13] = 3D7 chloroquine-sensitive strain, pLDH assay, mean ± S.D.

Cc1ccc(CN2CCC(C(O)c3ccc(F)cc3)CC2)cc1 (stereo not drawn) [Compound 12, [1-(4-methylbenzyl)piperidin-4-yl] [4-fluorophenyl] methanol]
Antiplasmodial activity class on Dd2 ([1]; Dd2 strain, class by IC50): active | IC50 [1, 6]: 2.78 ± 0.09 µg/mL (≈ 8.87 µM) | IC90 [1, 7]: 10.2 ± 3.31 µg/mL (≈ 32.5 µM) | SI on 3D7 [2]: 55.52 | SI on Dd2 [2]: 67.39 | Mean SI [2]: 61.46 ± 8.39 | CC50 at 72 h [3]: 188 µg/mL (≈ 598 µM) | Antiplasmodial activity class on 3D7 ([4]; 3D7 strain, class by IC50): active | IC50 [4, 8]: 3.37 ± 0.82 µg/mL (≈ 10.8 µM) | IC90 [4, 9]: 15.7 µg/mL (≈ 50.2 µM) | inhibition at 40 µg/mL [5]: 83.1%

O=C(c1ccc(F)cc1)C1CCN(Cc2ccccc2[N+](=O)[O-])CC1 [Compound 4, [1-(2-nitrobenzyl)piperidin-4-yl] [4-fluorophenyl] methanone]
Inhibition (%) of P. falciparum Dd2 growth [5]: poor inhibition | inhibition at 40 µg/mL [5]: 27.7%

O=C(c1ccc(F)cc1)C1CCN(Cc2ccc(F)cc2)CC1 [Compound 1, [1-(4-fluorobenzyl)piperidin-4-yl] [4-fluorophenyl] methanone]
IC50 [1, 6]: 5.69 ± 2.38 µg/mL (≈ 18 µM) | IC90 [1, 7]: 27.6 ± 0.78 µg/mL (≈ 87.5 µM) | IC50 [1, 10]: 5 to 10 µg/mL (≈ 15.9 to 31.7 µM) | SI on 3D7 [2]: 22.17 | SI on Dd2 [2]: 32.91 | Mean SI [2]: 27.54 ± 7.59 | CC50 at 72 h [3]: 188 µg/mL (≈ 595 µM) | IC50 [4, 8]: 8.45 ± 2.11 µg/mL (≈ 26.8 µM) | IC90 [4, 9]: 17.9 ± 0.18 µg/mL (≈ 56.6 µM) | IC50 [4, 11]: 5 to 10 µg/mL (≈ 15.9 to 31.7 µM) | inhibition at 40 µg/mL [5]: 83.2%

N-{[1-(4-bromobenzyl) piperidin-4-yl] [4-fluorophenyl] methyl}-3-bromobenzylamine [Compound 14]
IC50 [1, 12]: 2.57 ± 1.64 µg/mL | IC90 [1, 12]: 16.21 ± 0.35 µg/mL | Antiplasmodial activity class on Dd2 ([1]; Dd2 strain, class by IC50): active | SI on 3D7 [2]: 163 | IC50 [4, 13]: 2.28 ± 0.64 µg/mL | IC90 [4, 13]: 11.31 ± 3.50 µg/mL | Antiplasmodial activity class on 3D7 ([4]; 3D7 strain, class by IC50): active | Inhibition (%) of P. falciparum Dd2 growth [5]: 86.0%

OC(c1ccc(F)cc1)C1CCN(Cc2ccc(Br)cc2)CC1 (stereo not drawn) [Compound 11, [1-(4-bromobenzyl)piperidin-4-yl] [4-fluorophenyl] methanol]
Antiplasmodial activity class on Dd2 ([1]; Dd2 strain, class by IC50): active | IC50 [1, 6]: 1.03 µg/mL (≈ 2.72 µM) | IC90 [1, 7]: 27.8 ± 0.98 µg/mL (≈ 73.5 µM) | SI on 3D7 [2]: 74.49 | Mean SI [2]: 128.26 ± 76.1 | CC50 at 72 h [3]: 188 µg/mL (≈ 496 µM) | Antiplasmodial activity class on 3D7 ([4]; 3D7 strain, class by IC50): active | IC50 [4, 8]: 2.51 ± 0.3 µg/mL (≈ 6.64 µM) | IC90 [4, 9]: 16.8 ± 0.88 µg/mL (≈ 44.4 µM) | inhibition at 40 µg/mL [5]: 85.6%

O=C(c1ccc(F)cc1)C1CCN(Cc2ccc(Cl)cc2)CC1 [Compound 3, [1-(4-chlorobenzyl)piperidin-4-yl] [4-fluorophenyl] methanone]
Antiplasmodial activity class on Dd2 ([1]; Dd2 strain, class by IC50): active | IC50 [1, 6]: 4.12 ± 1.28 µg/mL (≈ 12.4 µM) | IC90 [1, 7]: 32.4 ± 0.67 µg/mL (≈ 97.6 µM) | Mean SI [2]: 17.31 ± 3.0 | CC50 at 72 h [3]: 62.5 µg/mL (≈ 188 µM) | Antiplasmodial activity class on 3D7 ([4]; 3D7 strain, class by IC50): active | IC50 [4, 8]: 3.21 ± 0.21 µg/mL (≈ 9.67 µM) | IC90 [4, 9]: 17.9 ± 2.39 µg/mL (≈ 53.9 µM) | inhibition at 40 µg/mL [5]: 56.6%

OC(c1ccc(F)cc1)C1CCN(Cc2ccc(Cl)c(Cl)c2)CC1 (stereo not drawn) [Compound 8, [1-(3,4-dichlorobenzyl)piperidin-4-yl] [4-fluorophenyl] methanol]
Antiplasmodial activity class on Dd2 ([1]; Dd2 strain, class by IC50): active | IC50 [1, 6]: 1.3 µg/mL (≈ 3.53 µM) | IC90 [1, 7]: 17.3 ± 3.27 µg/mL (≈ 47.1 µM) | SI on 3D7 [2]: 21.14 | SI on Dd2 [2]: 71.67 | Mean SI [2]: 46.41 ± 35.7 | CC50 at 72 h [3]: 93.8 µg/mL (≈ 255 µM) | Antiplasmodial activity class on 3D7 ([4]; 3D7 strain, class by IC50): active | IC50 [4, 8]: 4.43 ± 0.32 µg/mL (≈ 12 µM) | IC90 [4, 9]: 13.9 ± 1.25 µg/mL (≈ 37.7 µM) | inhibition at 40 µg/mL [5]: 81.7%

Cc1ccc(CN2CCC(C(=O)c3ccc(F)cc3)CC2)cc1 [Compound 6, [1-(4-methylbenzyl)piperidin-4-yl] [4-fluorophenyl] methanone]
IC50 [1, 6]: 12.8 ± 3.21 µg/mL (≈ 40.9 µM) | IC90 [1, 7]: 37.1 ± 0.53 µg/mL (≈ 119 µM) | IC50 [1, 10]: ≥ 10 µg/mL | IC50 [4, 8]: 13.6 ± 0.31 µg/mL (≈ 43.8 µM) | IC90 [4, 9]: 19.1 ± 2.46 µg/mL (≈ 61.3 µM) | IC50 [4, 11]: ≥ 10 µg/mL | inhibition at 40 µg/mL [5]: 59.1%
